# Columns and labels:
# Format in all cases: in vivo
# [1] = test system: giant foxtail (Setaria faberii); assay: Test A postemergence; conditions: Setaria faberi, post-emergence, 240 h, Postemergence, read-out: Foxtail, Giant plant response rating (0 to 100 scale); for pest or weed control at 125 g/ha: 125 g ai/ha, visual rating about 10 d after treatment; for pest or weed control at 31 g/ha: 31 g ai/ha, 0 is no effect, 100 is complete control
# Summary of the method: (§1)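 Seeds sprayed preemergence with a directed soil spray, or plants at 2 to 10 cm height and one- to two-leaf stage sprayed postemergence, with test chemicals in a non-phytotoxic solvent mixture containing surfactant, in loam soil–sand blend. Injury rated visually against untreated controls after about 10 d in greenhouse, 0 (no effect) to 100 (complete control).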
# [2] = test system: ryegrass, Italian (Italian ryegrass, Lolium multiflorum); assay: Test A postemergence; conditions: Lolium multiflorum, post-emergence, 240 h, Postemergence, read-out: Ryegrass, Italian plant response rating (0 to 100 scale); for pest or weed control at 125 g/ha: 125 g ai/ha, visual rating about 10 d after treatment; for pest or weed control at 31 g/ha: 31 g ai/ha, 0 is no effect, 100 is complete control
# Summary of the method: as §1
# [3] = test system: wheat (Triticum aestivum); assay: Test A postemergence; conditions: Triticum aestivum, post-emergence, 240 h, Postemergence, read-out: Wheat plant response rating (0 to 100 scale); for plant injury at 125 g/ha: 125 g ai/ha, visual rating about 10 d after treatment; for plant injury at 31 g/ha: 31 g ai/ha, 0 is no effect, 100 is complete control
# Summary of the method: as §1
# [4] = test system: blackgrass (Alopecurus myosuroides); assay: Test A postemergence; conditions: Alopecurus myosuroides, post-emergence, 240 h, Postemergence, read-out: Blackgrass plant response rating (0 to 100 scale); for pest or weed control at 125 g/ha: 125 g ai/ha, visual rating about 10 d after treatment; for pest or weed control at 31 g/ha: 31 g ai/ha, 0 is no effect, 100 is complete control
# Summary of the method: as §1
# [5] = test system: ragweed (common ragweed, Ambrosia elatior); assay: Test A postemergence; conditions: Ambrosia artemisiifolia, post-emergence, 240 h, Postemergence, read-out: Ragweed plant response rating (0 to 100 scale); for pest or weed control at 125 g/ha: 125 g ai/ha, visual rating about 10 d after treatment; for pest or weed control at 31 g/ha: 31 g ai/ha, 0 is no effect, 100 is complete control
# Summary of the method: as §1
# corn (Zea mays) = assay: Test A postemergence; conditions: Zea mays, post-emergence, 240 h, Postemergence, read-out: Corn plant response rating (0 to 100 scale); for plant injury at 125 g/ha: 125 g ai/ha, visual rating about 10 d after treatment; for plant injury at 31 g/ha: 31 g ai/ha, 0 is no effect, 100 is complete control
# Summary of the method: as §1
# [6] = test system: pigweed (Amaranthus retroflexus); assay: Test A postemergence; conditions: Amaranthus retroflexus, post-emergence, 240 h, Postemergence, read-out: Pigweed plant response rating (0 to 100 scale); for pest or weed control at 125 g/ha: 125 g ai/ha, visual rating about 10 d after treatment; for pest or weed control at 31 g/ha: 31 g ai/ha, 0 is no effect, 100 is complete control
# Summary of the method: as §1
# [7] = test system: Galium (catchweed bedstraw, Galium aparine); assay: Test A postemergence; conditions: Galium, post-emergence, 240 h, Postemergence, read-out: Galium plant response rating (0 to 100 scale); for pest or weed control at 125 g/ha: 125 g ai/ha, visual rating about 10 d after treatment; for pest or weed control at 31 g/ha: 31 g ai/ha, 0 is no effect, 100 is complete control
# Summary of the method: as §1
# [8] = test system: barnyardgrass (Echinochloa crus-galli); assay: Test A postemergence; conditions: Echinochloa crus-galli, post-emergence, 240 h, Postemergence; for pest or weed control at 125 g/ha: 125 g ai/ha, visual rating about 10 d after treatment, read-out: Barnyardgrass plant response rating (0 to 100 scale, 0 no effect, 100 complete control); for pest or weed control at 31 g/ha: 31 g ai/ha, 0 is no effect, 100 is complete control, read-out: Barnyardgrass plant response rating (0 to 100 scale)
# Summary of the method: as §1
# Kochia (Kochia scoparia) [9] = assay: Test A postemergence; conditions: Bassia scoparia, post-emergence, 240 h, Postemergence, read-out: Kochia plant response rating (0 to 100 scale); for pest or weed control at 125 g/ha: 125 g ai/ha, visual rating about 10 d after treatment; for pest or weed control at 31 g/ha: 31 g ai/ha, 0 is no effect, 100 is complete control
# Summary of the method: as §1
# [10] = test system: giant foxtail (Setaria faberii); assay: Test A preemergence; conditions: Setaria faberi, pre-emergence, 240 h, Preemergence; for pest or weed control at 31 g/ha: 31 g ai/ha, 0 to 100 scale where 0 is no effect and 100 is complete control, read-out: Foxtail, Giant plant response rating; for pest or weed control at 125 g/ha: 125 g ai/ha, 0 to 100 scale (0 no effect, 100 complete control), read-out: Plant response rating, Foxtail, Giant
# Summary of the method: as §1
# [11] = test system: ryegrass, Italian (Italian ryegrass, Lolium multiflorum); assay: Test A preemergence; conditions: Lolium multiflorum, pre-emergence, 240 h, Preemergence; for pest or weed control at 31 g/ha: 31 g ai/ha, 0 to 100 scale where 0 is no effect and 100 is complete control, read-out: Ryegrass, Italian plant response rating; for pest or weed control at 125 g/ha: 125 g ai/ha, 0 to 100 scale (0 no effect, 100 complete control), read-out: Plant response rating, Ryegrass, Italian
# Summary of the method: as §1
# [12] = test system: ragweed (common ragweed, Ambrosia elatior); assay: Test A preemergence; conditions: Ambrosia artemisiifolia, pre-emergence, 240 h, Preemergence; for pest or weed control at 31 g/ha: 31 g ai/ha, 0 to 100 scale where 0 is no effect and 100 is complete control, read-out: Ragweed plant response rating; for pest or weed control at 125 g/ha: 125 g ai/ha, 0 to 100 scale (0 no effect, 100 complete control), read-out: Plant response rating, Ragweed
# Summary of the method: as §1
# [13] = test system: pigweed (Amaranthus retroflexus); assay: Test A preemergence; conditions: Amaranthus retroflexus, pre-emergence, 240 h, Preemergence; for pest or weed control at 31 g/ha: 31 g ai/ha, 0 to 100 scale where 0 is no effect and 100 is complete control, read-out: Pigweed plant response rating; for pest or weed control at 125 g/ha: 125 g ai/ha, 0 to 100 scale (0 no effect, 100 complete control), read-out: Plant response rating, Pigweed
# [14] = test system: barnyardgrass (Echinochloa crus-galli); assay: Test A preemergence; conditions: Echinochloa crus-galli, pre-emergence, 240 h, Preemergence; for pest or weed control at 31 g/ha: 31 g ai/ha, 0 to 100 scale where 0 is no effect and 100 is complete control, read-out: Barnyardgrass plant response rating; for pest or weed control at 125 g/ha: 125 g ai/ha, 0 to 100 scale (0 no effect, 100 complete control), read-out: Plant response rating, Barnyardgrass
# Summary of the method: as §1
# Kochia (Kochia scoparia) [15] = assay: Test A preemergence; conditions: Bassia scoparia, pre-emergence, 240 h, Preemergence; for pest or weed control at 31 g/ha: 31 g ai/ha, 0 to 100 scale where 0 is no effect and 100 is complete control, read-out: Kochia plant response rating; for pest or weed control at 125 g/ha: 125 g ai/ha, 0 to 100 scale (0 no effect, 100 complete control), read-out: Plant response rating, Kochia
# Summary of the method: as §1
# rice (Oryra sativa) = assay: Test B flooded paddy test; conditions: Oryza sativa, 360 h, Flood, 250 g ai/ha; visually evaluated after 13 to 15 d; read-out: Plant response rating, Rice (0 to 100 scale where 0 is no effect and 100 is complete control)
# Summary of the method: (§2)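 Plants at 2-leaf stage flooded to 3 cm above soil, with compounds applied directly to paddy water and that depth maintained. Plants kept in greenhouse 13–15 d. Visual rating versus controls on a 0 (no effect) to 100 (complete control) scale.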
# [16] = test system: ducksalad (Heteranthera limosa); assay: Test B flooded paddy test; conditions: Heteranthera limosa, 360 h, Flood, 250 g ai/ha; visually evaluated after 13 to 15 d; read-out: Plant response rating, Ducksalad (0 to 100 scale where 0 is no effect and 100 is complete control)
# Summary of the method: as §2
# [17] = test system: sedge, umbrella (small-flower umbrella sedge, Cyperus difformis); assay: Test B flooded paddy test; conditions: Cyperus difformis, 360 h, Flood, 250 g ai/ha; visually evaluated after 13 to 15 d; read-out: Plant response rating, Sedge, Umbrella (0 to 100 scale where 0 is no effect and 100 is complete control)
# Summary of the method: as §2
# [18] = test system: barnyardgrass (Echinochloa crus-galli); assay: Test B flooded paddy test; conditions: Echinochloa crus-galli, 360 h, Flood, 250 g ai/ha; visually evaluated after 13 to 15 d; read-out: Plant response rating, Barnyardgrass (0 to 100 scale where 0 is no effect and 100 is complete control)
# Summary of the method: as §2
SMILES,pest or weed control at 125 g/ha [1] [%],pest or weed control at 31 g/ha [1] [%],pest or weed control at 125 g/ha [2] [%],pest or weed control at 31 g/ha [2] [%],plant injury at 125 g/ha [3] [%],plant injury at 31 g/ha [3] [%],pest or weed control at 125 g/ha [4] [%],pest or weed control at 31 g/ha [4] [%],pest or weed control at 125 g/ha [5] [%],pest or weed control at 31 g/ha [5] [%],plant injury at 125 g/ha (corn (Zea mays)) [%],plant injury at 31 g/ha (corn (Zea mays)) [%],pest or weed control at 125 g/ha [6] [%],pest or weed control at 31 g/ha [6] [%],pest or weed control at 125 g/ha [7] [%],pest or weed control at 31 g/ha [7] [%],pest or weed control at 125 g/ha [8] [%],pest or weed control at 31 g/ha [8] [%],pest or weed control at 125 g/ha (Kochia (Kochia scoparia) [9]) [%],pest or weed control at 31 g/ha (Kochia (Kochia scoparia) [9]) [%],other results
CN1C[C@H](c2ccc(C(F)(F)F)cc2)[C@@H](C(=O)Nc2ccc(F)nc2F)C1=O [Compound 1347],90,70,40,0,30,20,60,30,70,40,30,30,90,50,70,70,90,70,80,60,pest or weed control at 31 g/ha [10]: 100%; pest or weed control at 125 g/ha [10]: 100%; pest or weed control at 31 g/ha [11]: 0%; pest or weed control at 125 g/ha [11]: 30%; pest or weed control at 31 g/ha [12]: 30%; pest or weed control at 125 g/ha [12]: 90%; pest or weed control at 31 g/ha [13]: 90%; pest or weed control at 125 g/ha [13]: 100%; pest or weed control at 31 g/ha [14]: 80%; pest or weed control at 125 g/ha [14]: 100%; pest or weed control at 31 g/ha (Kochia (Kochia scoparia) [15]): 90%; pest or weed control at 125 g/ha (Kochia (Kochia scoparia) [15]): 90%; pest or weed control at 250 g/ha (rice (Oryra sativa)): 0%; pest or weed control at 250 g/ha [16]: 98%; pest or weed control at 250 g/ha [17]: 0%; pest or weed control at 250 g/ha [18]: 90%
Cc1cccc([C@H]2CN(C)C(=O)[C@@H]2C(=O)Nc2ccc(F)nc2F)c1 [Compound 1349],80,60,20,0,0,0,20,0,0,0,0,0,0,0,60,30,90,70,30,0,pest or weed control at 31 g/ha [10]: 100%; pest or weed control at 125 g/ha [10]: 100%; pest or weed control at 31 g/ha [11]: 0%; pest or weed control at 125 g/ha [11]: 0%; pest or weed control at 31 g/ha [12]: 0%; pest or weed control at 125 g/ha [12]: 0%; pest or weed control at 31 g/ha [13]: 0%; pest or weed control at 125 g/ha [13]: 0%; pest or weed control at 31 g/ha [14]: 20%; pest or weed control at 125 g/ha [14]: 100%; pest or weed control at 31 g/ha (Kochia (Kochia scoparia) [15]): 0%; pest or weed control at 125 g/ha (Kochia (Kochia scoparia) [15]): 20%; pest or weed control at 250 g/ha (rice (Oryra sativa)): 0%; pest or weed control at 250 g/ha [16]: 95%; pest or weed control at 250 g/ha [17]: 0%; pest or weed control at 250 g/ha [18]: 90%
